Results as given in patent US9163044B2, “Carbon monoxide releasing molecules and uses thereof” (Alfama, Inc., priority 2011, dated 2015).

Key:
[1] = system: APAP-induced acute liver failure (ALF) model; test: APAP-induced acute liver failure (ALF) model, sublethal (300 mg/kg APAP i.p.); assay type: in vivo, C57Bl/6 male mice; settings: for ALT levels reduced relative to untreated control animals: +5 h after APAP (300 mg/kg), ALT at 22 hours
Description: Compound 3b was studied in a sublethal model for acetaminophen (APAP)-induced Liver Injury.
ALF was induced in C57Bl/6 male mice with a single dose of acetaminophen (300 mg/kg) by i.p. injection. […] Serum alanine aminotransferase (ALT) was measured 22 h after APAP injection (n=5 mice for each group). […] ALF was induced in C57Bl/6 male mice with a single dose of acetaminophen (300 mg/kg) by i.p. injection. […] Twenty-two hours after APAP injection serum ALT was measured (indicated in FIG. 11A), centrilobular sections of mouse livers were cut and stained with hematoxylin and eosin, and the percentage of liver necrosis was determined. The data indicates a dose-dependent reduction of ALT levels of 9% to 83% relative to APAP control, and a dose-dependent reduction of necrosis of 0% to 56% relative to APAP control.
ALF was induced in C57Bl/6 male mice with a single dose of acetaminophen (300 mg/kg) by i.p. injection. […] Alanine aminotransferase (ALT) was measured 22 h after APAP injection (n=4 or n=5 mice for each group).
ALF was induced in C57Bl/6 male mice with a single dose of acetaminophen (300 mg/kg) by i.p. injection. […] Twenty-two hours after APAP injection, serum ALT was measured (indicated in FIGS. 12A-12B), centrilobular sections of mouse livers were cut and stained with hematoxylin and eosin, and the percentage of liver necrosis was determined.
ALF was induced in C57Bl/6 male mice with a single dose of acetaminophen (300 mg/kg) by i.p. injection.
FIG. 14 depicts the effect of late treatment with Compound 3b on serum ALT in ALF model. ALF was induced in C57Bl/6 male mice with a single dose of acetaminophen (300 mg/kg) by i.p. injection. At sixteen hours after APAP injection, the animals were treated with different doses of Compound 3b (0.3, 3, 30 or 60 mg/kg). Alanine aminotransferase (ALT) was measured 22 h after APAP injection (n=4 or n=5 mice for each group).
ALF was induced in C57Bl/6 male mice with a single dose of acetaminophen (300 mg/kg) by i.p. injection. […] Experiments 1 and 2 represent two independent experiments. Alanine aminotransferase (ALT) was measured 22 h after APAP injection (n=4 or n=5 mice for each group). The ALT levels and the respective percentage of ALT increase, relative to the increase observed in mice injected with APAP alone, are presented in Table 7.
ALF was induced in C57Bl/6 male mice with a single dose of acetaminophen (300 mg/kg) by i.p. injection. […] Twenty-two hours after APAP injection, serum ALT was measured and centrilobular sections of mouse livers were cut and stained with hematoxylin and eosin.

[2] = system: murine partial hepatectomy model; settings: from Yang et al., Crit. Care (2009); cited from earlier work
[3] = system: lethal APAP liver failure model; test: lethal APAP liver failure model (500 mg/kg APAP i.p.), survival; settings: 2×300 mg/kg, same schedules; data not shown
[4] = half-life for CO release in sheep blood using an oximeter; assay type: in vitro ADME; settings: 632.1 μg/mL
Description: The stability of compound 4b was determined by measuring the release of CO in vitro in 50 mM Hepes buffer (pH 7.4) using a RCP-equipped GC. Compound 4b concentration was 50 μM. […] The half-life for CO release was also measured in sheep blood using an oximeter. A concentration of 632.1 μg/mL of compound 4b was used.
The half-life for CO release was also measured in sheep blood using an oximeter. […] Compound 5b released 0.12 molar equivalents of CO in 3 hours.

[5] = NAC 2 × 300 mg/kg at 1 h and 3 h post APAP, serum 22 h

SMILES: CC(=O)N[C@@H](CS)C(=O)O [NAC, N-acetylcysteine, reference compound]
- Measured ALT values (mean ± S.D.) Experiment 1 [1, 5]: 1745 ± 738 U/L
- Measured ALT values (mean ± S.D.) Experiment 2 [1, 5]: 6620 ± 2142 U/L
- effect on serum ALT when given late after APAP injury (in words) ([1]; five hours and seven hours after APAP, NAC 150 mg/kg, Compound 3b 120 mg/kg): no longer effective and increases serum ALT levels (is toxic)
- effect on liver regeneration (in words) [2]: no effect and may be detrimental
- survival [3]: 100%

SMILES: O=C(O)C1([N+]#[C][Mo-6]([C]#[O+])([C]#[O+])([C]#[O+])([C]#[N+]C2(C(=O)O)CC2)[C]#[N+]C2(C(=O)O)CC2)CC1 [Compound 5b, tricarbonyl[tris(isocyanocyclopropylcarboxylic acid)]Mo(0)]
- CO released in sheep blood in 3 hours [4]: 0.12 molar equivalents of CO
- ALT levels reduced relative to untreated control animals ([1]; 120 mg/kg i.p. at +3 h): 70%

SMILES: O=C([O-])CC([N+]#[C][Mo-6]([C]#[O+])([C]#[O+])([C]#[O+])([C]#[N+]C(CC(=O)[O-])C(=O)[O-])[C]#[N+]C(CC(=O)[O-])C(=O)[O-])C(=O)[O-].[Li+].[Li+].[Li+].[Li+].[Li+].[Li+] (centres unmarked) [Compound 4b, tricarbonyl[tris(lithium 2-isocyanosuccinate)]Mo(0)]
- ALT levels reduced relative to untreated control animals ([1]; 30 mg/kg i.p. at +3 h): 75%
